Data from ChEMBL document CHEMBL5230096, “A comprehensive insight on the recent development of Cyclic Dependent Kinase inhibitors as anticancer agents” (Eur J Med Chem, 2020).

Legend:
HeLa = test: Antiproliferative activity against human Hela cells assessed as reduction in cell viability by MTT assay; format: functional, cell-based
MCF7 [1] = test: Cytotoxicity against human MCF7 cells assessed as reduction in cell viability by MTT assay; format: functional, cell-based
MCF7 [2] = test: Antiproliferative activity against human MCF7 cells assessed as reduction in cell viability by MTT assay; format: functional, cell-based
HepG2 = test: Antiproliferative activity against human HepG2 cells assessed as reduction in cell viability by MTT assay; format: functional, cell-based
A549 = test: Antiproliferative activity against human A549 cells assessed as reduction in cell viability by MTT assay; format: functional, cell-based
Caco-2 = test: Antiproliferative activity against human Caco-2 cells assessed as reduction in cell viability by MTT assay; format: functional, cell-based
Histone deacetylase = test: Inhibition of HDAC (unknown origin); format: protein assay, Homo sapiens
[3] = biological target: Cyclin-dependent kinase 2 (Homo sapiens, UniProt P24941)
Description: Inhibition of CDK2 (unknown origin)

B16-F10 = test: Antiproliferative activity against mouse B16-F10 cells assessed reduction in cell proliferation; format: functional, cell-based
MCF7 [4] = test: Antiproliferative activity against human MCF7 cells assessed reduction in cell proliferation; format: functional, cell-based
[5] = biological target: T1, CDK2/Cyclin A2 (Homo sapiens) (UniProt P24941+P20248); test: Inhibition of CDK2/Cyclin A2 (unknown origin) at 10 uM incubated for 40 mins in presence of ATP by Kinase-Glo Plus luminescence kinase assay; format: protein-complex assay
CDK2/Cyclin A2 [6] = biological target: T2, CDK2/Cyclin A2 (Homo sapiens, UniProt P24941); test: Inhibition of CDK2/Cyclin A2 (unknown origin) incubated for 40 mins in presence of ATP by Kinase-Glo Plus luminescence kinase assay; format: protein-complex assay
[7] = system: Panel NCI-60 (60 carcinoma cell lines); test: Antiproliferative activity against human Panel NCI-60 (60 carcinoma cell lines) assessed as reduction in cell viability at 10 uM; format: functional
CDK2/Cyclin A2 [8] = biological target: T2, CDK2/Cyclin A2; test: Inhibition of CDK2/cyclin A2 (unknown origin) using histone as substrate in presence of ATP by luminescent ADP detection assay; format: protein-complex assay
[9] = system: Panel NCI-60 (60 carcinoma cell lines); test: Antiproliferative activity against human Panel NCI-60 (60 carcinoma cell lines) cells assessed as inhibition of cell growth at 0.00001 M incubated for 48 hrs by sulforhodamine B assay; format: functional; design: scale not given: the % may be the effect or the level left; settings: dose 10 µM
[10] = biological target: T1, CDK2/Cyclin A2 (Homo sapiens); test: Inhibition of CDK2/Cyclin A2 (unknown origin) at 10 uM by Kinase-Glo Plus luminescence kinase assay; format: protein-complex assay
[11] = biological target: T3, Protein cereblon/Cyclin-dependent kinase 9 (Homo sapiens) (UniProt P50750+Q96SW2); test: Protac activity at CRBN/CDK9 in human HCT-116 cells assessed as induction of CDK9 degradation at 20 uM incubated for 6 hrs by Western blot analysis; format: cell-based
T3 sequence (P50750 whole entry, looked up): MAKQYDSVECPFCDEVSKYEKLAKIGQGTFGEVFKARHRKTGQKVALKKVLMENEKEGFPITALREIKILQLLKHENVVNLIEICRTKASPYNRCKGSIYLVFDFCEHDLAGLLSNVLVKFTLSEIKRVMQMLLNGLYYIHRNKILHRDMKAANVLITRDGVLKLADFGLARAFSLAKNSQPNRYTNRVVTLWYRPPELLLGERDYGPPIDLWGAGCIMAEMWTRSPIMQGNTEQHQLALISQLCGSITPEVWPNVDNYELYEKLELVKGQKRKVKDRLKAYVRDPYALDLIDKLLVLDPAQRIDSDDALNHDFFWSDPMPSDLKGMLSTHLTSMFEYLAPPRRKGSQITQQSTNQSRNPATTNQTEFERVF
T3 sequence (Q96SW2 whole entry, looked up): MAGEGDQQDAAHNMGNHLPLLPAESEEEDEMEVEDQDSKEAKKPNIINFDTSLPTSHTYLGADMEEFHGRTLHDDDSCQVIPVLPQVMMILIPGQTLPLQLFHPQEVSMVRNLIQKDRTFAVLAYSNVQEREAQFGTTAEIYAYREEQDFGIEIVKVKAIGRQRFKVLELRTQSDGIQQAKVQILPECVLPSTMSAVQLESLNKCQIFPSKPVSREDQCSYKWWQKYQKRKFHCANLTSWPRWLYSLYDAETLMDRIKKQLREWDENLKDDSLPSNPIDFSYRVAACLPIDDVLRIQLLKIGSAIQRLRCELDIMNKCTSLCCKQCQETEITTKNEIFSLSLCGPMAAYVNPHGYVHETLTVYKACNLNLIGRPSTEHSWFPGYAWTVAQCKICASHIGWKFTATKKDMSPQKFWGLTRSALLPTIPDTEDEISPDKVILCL

[12] = biological target: T3, Protein cereblon/Cyclin-dependent kinase 9 (Homo sapiens); test: Protac activity at CRBN/CDK9 in human HCT-116 cells assessed as induction of CDK9 degradation at 10 uM incubated for 6 hrs by Western blot analysis; format: cell-based
CDK9/cyclin T1 = CDK9/cyclin T1 (Homo sapiens, UniProt P50750); test: Inhibition of CDK9/cyclin T1 (unknown origin) assessed as inhibition constant; format: protein-complex assay
Sequence of CDK9/cyclin T1 (O60563 whole entry): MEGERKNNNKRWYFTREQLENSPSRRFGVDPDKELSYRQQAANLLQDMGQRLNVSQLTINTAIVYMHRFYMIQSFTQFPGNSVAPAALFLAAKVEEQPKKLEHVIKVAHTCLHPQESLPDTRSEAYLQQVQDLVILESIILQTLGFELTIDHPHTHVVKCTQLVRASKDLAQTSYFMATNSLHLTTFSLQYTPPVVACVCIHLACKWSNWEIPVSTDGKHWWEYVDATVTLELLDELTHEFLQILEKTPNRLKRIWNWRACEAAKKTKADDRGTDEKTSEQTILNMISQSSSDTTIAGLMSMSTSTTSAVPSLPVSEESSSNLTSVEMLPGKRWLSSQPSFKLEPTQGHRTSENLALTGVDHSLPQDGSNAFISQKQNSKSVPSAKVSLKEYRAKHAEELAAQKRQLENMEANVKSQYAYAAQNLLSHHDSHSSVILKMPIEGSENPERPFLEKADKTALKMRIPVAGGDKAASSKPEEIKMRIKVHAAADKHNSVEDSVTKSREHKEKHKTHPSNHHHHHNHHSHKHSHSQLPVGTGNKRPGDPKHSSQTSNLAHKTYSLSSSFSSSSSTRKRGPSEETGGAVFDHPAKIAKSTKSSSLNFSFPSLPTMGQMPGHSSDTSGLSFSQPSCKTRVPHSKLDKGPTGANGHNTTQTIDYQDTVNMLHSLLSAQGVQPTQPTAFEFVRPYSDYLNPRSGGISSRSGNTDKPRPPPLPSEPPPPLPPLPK
Sequence of CDK9/cyclin T1 (P50750 whole entry): as the sequence (P50750 whole entry, looked up) above

K562 = test: Antiproliferative activity against human K562 cells assessed as reduction in cell proliferation incubated for 3 days by calcein AM staining based fluorescent analysis; format: functional; settings: K562, 72 h
[13] = biological target: Cyclin-dependent kinase 2/cyclin E1 (Homo sapiens, UniProt P24941); test: Inhibition of CDK2/cyclin E1 (unknown origin) expressed in Sf9 cells using histone H1 as substrate in presence of ATP by microplate reader analysis
MCF7 [14] = test: Antiproliferative activity against human MCF7 cells assessed as reduction in cell proliferation incubated for 3 days by calcein AM staining based fluorescent analysis; format: functional; settings: MCF7, 72 h
MCF7 [15] = test: Antiproliferative activity against human MCF7 cells assessed as reduction in cell proliferation incubated for 48 hrs by Sulfo-Rhodamine-B stain (SRB) assay; format: functional, cell-based; settings: MCF7, 48 h
[16] = biological target: Cyclin-dependent kinase 1 (Homo sapiens, UniProt P06493); test: Inhibition of CDK1 (unknown origin) assessed as inhibition constant
Sequence of Cyclin-dependent kinase 1 (P06493 whole entry): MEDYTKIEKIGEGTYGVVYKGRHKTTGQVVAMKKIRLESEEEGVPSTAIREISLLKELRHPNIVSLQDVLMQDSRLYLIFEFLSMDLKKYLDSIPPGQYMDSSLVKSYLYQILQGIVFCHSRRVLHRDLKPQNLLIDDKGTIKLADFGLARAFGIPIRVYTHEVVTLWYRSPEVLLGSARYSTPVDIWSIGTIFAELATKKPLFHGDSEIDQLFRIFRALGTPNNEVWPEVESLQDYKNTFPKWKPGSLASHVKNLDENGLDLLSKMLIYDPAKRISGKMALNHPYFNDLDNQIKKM

HCT-116 = test: Anticancer activity against human HCT-116 cells assessed as reduction in cell viability incubated for 48 hrs by MTT assay; format: functional, cell-based; settings: HCT-116, 48 h
MCF7 [17] = test: Anticancer activity against human MCF7 cells assessed as reduction in cell viability incubated for 48 hrs by MTT assay; format: functional, cell-based; settings: MCF7, 48 h
[18] = biological target: Cyclin-dependent kinase 2/cyclin E (Homo sapiens, UniProt P24941); test: Inhibition of CDK2/Cyclin E (unknown origin) expressed in baculovirus infected Sf9 cells using histone H1 as substrate in presence of gamma32P-ATP by scintillation counter analysis
[19] = system: Human immunodeficiency virus 1; test: Antiviral activity against HIV1; format: functional, organism-based
CDK7/Cyclin H/MNAT1 = CDK7/Cyclin H/MNAT1 (Homo sapiens, UniProt P50613); test: Inhibition of CDK7/Cyclin H/MNAT1 (unknown origin) using 5-FAM-YSPTSPSYSPTSPSYSPTSPSKKK as substrate in presence of ATP by spectroscopic analysis; format: protein-complex assay
Sequence of CDK7/Cyclin H/MNAT1 (P51946 whole entry): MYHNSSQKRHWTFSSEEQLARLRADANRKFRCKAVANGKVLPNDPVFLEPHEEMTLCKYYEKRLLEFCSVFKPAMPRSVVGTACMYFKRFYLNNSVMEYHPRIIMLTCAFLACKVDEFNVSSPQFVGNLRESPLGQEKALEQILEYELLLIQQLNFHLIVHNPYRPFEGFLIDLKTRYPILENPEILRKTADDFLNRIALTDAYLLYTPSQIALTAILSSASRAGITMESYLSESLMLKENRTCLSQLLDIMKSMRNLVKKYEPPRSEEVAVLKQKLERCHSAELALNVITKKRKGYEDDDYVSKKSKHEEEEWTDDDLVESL
Sequence of CDK7/Cyclin H/MNAT1 (P50613 whole entry): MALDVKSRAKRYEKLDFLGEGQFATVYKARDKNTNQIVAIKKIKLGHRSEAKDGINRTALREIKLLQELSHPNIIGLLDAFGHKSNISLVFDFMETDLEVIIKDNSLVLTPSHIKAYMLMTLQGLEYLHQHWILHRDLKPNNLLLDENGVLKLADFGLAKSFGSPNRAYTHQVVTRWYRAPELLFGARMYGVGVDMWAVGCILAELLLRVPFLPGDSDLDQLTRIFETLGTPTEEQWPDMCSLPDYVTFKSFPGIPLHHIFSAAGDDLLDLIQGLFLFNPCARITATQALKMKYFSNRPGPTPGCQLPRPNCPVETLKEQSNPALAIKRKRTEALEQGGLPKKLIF
Sequence of CDK7/Cyclin H/MNAT1 (P51948 whole entry, further chain): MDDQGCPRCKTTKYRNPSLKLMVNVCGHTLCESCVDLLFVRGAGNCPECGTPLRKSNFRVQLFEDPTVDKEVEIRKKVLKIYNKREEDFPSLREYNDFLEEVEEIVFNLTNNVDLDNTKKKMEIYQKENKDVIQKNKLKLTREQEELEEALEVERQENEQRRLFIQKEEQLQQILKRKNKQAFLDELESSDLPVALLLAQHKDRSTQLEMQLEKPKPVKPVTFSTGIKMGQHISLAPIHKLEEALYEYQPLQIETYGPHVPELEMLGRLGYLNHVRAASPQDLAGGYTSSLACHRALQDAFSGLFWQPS

Structure (SMILES): CCOC(=O)C1=C(Cn2cc(COc3ccccc3C3NC(=O)NC(CCl)=C3C(=O)OCC)nn2)NC(=O)NC1c1ccccc1F (stereo not drawn)
- IC50 (HeLa): 18 µM

Structure (SMILES): O=C(CCn1cc(COC(=O)c2c[nH]c3ccccc23)nn1)NC(CC(=O)c1cc2ccccc2oc1=O)c1ccccc1Cl (stereo not drawn)
- IC50 (MCF7 [1]): 17.5 µM

Structure (SMILES): CCOC(=O)C1=C(C)n2nc(Nc3ccccc3)c(C(N)=O)c2NC1c1ccc(F)cc1 (stereo not drawn)
- IC50 (MCF7 [2]): 14.1 µM
- IC50 (HepG2): 24.2 µM
- IC50 (A549): 30 µM
- IC50 (Caco-2): 29.3 µM

Structure (SMILES): O=C(CCCn1cc(CNC2CC2)c(-c2ccccc2)n1)NO
- IC50 (Histone deacetylase): 2.76 µM
- IC50 [3]: 3.7 µM
- IC50 (B16-F10): 2530 nM
- IC50 (MCF7 [4]): 2960 nM

Structure (SMILES): O=C(NCCc1ccccc1)c1cnn2c(-c3ccc(Cl)cc3)nc(NCCc3ccccc3)nc12
- inhibition [5]: 82%
- IC50 (CDK2/Cyclin A2 [6]): 1850 nM
- inhibition at 10 µM [7]: 33.3%

Structure (SMILES): CCOC(=O)C1=C(C)n2nc(Nc3ccccc3)c(C#N)c2NC1c1ccc(OC)cc1 (stereo not drawn)
- IC50 (MCF7 [2]): 10.1 µM
- IC50 (HepG2): 17.1 µM
- IC50 (A549): 29.9 µM
- IC50 (Caco-2): 25.2 µM

Structure (SMILES): O=C(Nc1ccc(O)cc1)c1cnn(-c2cc(NCc3ccccc3)ncn2)c1
- IC50 (CDK2/Cyclin A2 [8]): < 20 nM

Structure (SMILES): O=C(Nc1ccc(F)cc1)c1cnn(-c2cc(NCc3ccccc3)ncn2)c1
- IC50 (CDK2/Cyclin A2 [8]): < 20 nM

Structure (SMILES): O=C1CC(=O)N(c2ccc(F)cc2)C(=S)N1C(=O)c1ccccc1
- IC50 [3]: 4.5 µM

Structure (SMILES): CCOC(=O)CSc1ncnc2c1c(-c1ccccc1)c(-c1ccccc1)n2-c1ccc(C)cc1
- Activity [9]: <50%

Structure (SMILES): Cc1cc(C)nc(NS(=O)(=O)c2ccc(N/C=C3\C(=O)NN=C3Nc3ccccc3)cc2)n1
- inhibition [10]: 40%

Structure (SMILES): CCOC(=O)C1=C(Cn2cc(COc3ccccc3C3NC(=O)NC(CCl)=C3C(=O)OCC)nn2)NC(=O)NC1c1ccc([N+](=O)[O-])cc1 (stereo not drawn)
- IC50 (HeLa): 18 µM

Structure (SMILES): O=C1CCC(N2C(=O)c3cccc(OCCCCCOc4ccc(CC(=O)Nc5cc(C6CCC6)[nH]n5)cc4)c3C2=O)C(=O)N1 (stereo not drawn)
- Activity [11]: 65%
- Activity [12]: 56%

Structure (SMILES): C/C(=N\N=C\c1ccccc1)c1c(O)c2ccccc2oc1=O
- Ki (CDK9/cyclin T1): 3.26 nM

Structure (SMILES): CCCCCSc1nc(OC(=O)c2cc3ccccc3o2)c2cn[nH]c2n1
- IC50 (K562): 19.8 µM
- IC50 [13]: 8.8 µM
- IC50 (MCF7 [14]): 18.9 µM

Structure (SMILES): NS(=O)(=O)c1ccc(S(=O)(=O)Nc2cccc3c(Cl)c[nH]c23)cc1
- IC50 (MCF7 [15]): 36.3 µM

Structure (SMILES): CCCCCSc1nc(OC(=O)c2ccccc2)c2cn[nH]c2n1
- IC50 (K562): 19.8 µM
- IC50 [13]: 14.8 µM
- IC50 (MCF7 [14]): 18.9 µM

Structure (SMILES): COc1ccc(C2CC(c3c(O)c4ccccc4oc3=O)=NN2c2ccccc2)cc1OC (stereo not drawn)
- Ki (CDK9/cyclin T1): 3.26 nM

Structure (SMILES): CC(=O)N1N=C(c2c(O)c3ccccc3oc2=O)CC1c1ccccc1Cl (stereo not drawn)
- Ki [16]: 0.35 nM

Structure (SMILES): Cc1ccc(-n2cc(-c3ccccc3)c3c(SCC(=O)N/N=C\c4ccc(N(C)C)cc4)ncnc32)cc1
- Activity [9]: <50%

Structure (SMILES): CC(=O)C(=NNc1ccc(-c2nc3ncccc3[nH]2)cc1)C(C)=O
- IC50 (HCT-116): 1690 nM
- IC50 (MCF7 [17]): 2110 nM

Structure (SMILES): O=c1[nH]cc(-c2cccc(F)c2F)c2nccn12
- IC50 [18]: 4.8 µM

Structure (SMILES): C[C@@H](CO)Nc1nc(N)c(/[N+]([O-])=N/C#N)c(OCC2CCCCC2)n1
- IC50 [3]: 0.3 µM

Structure (SMILES): CCCCCSc1nc(OC(=O)CC(C)(C)C)c2cn[nH]c2n1
- IC50 (K562): 19.8 µM
- IC50 [13]: 16.9 µM
- IC50 (MCF7 [14]): 18.9 µM

Structure (SMILES): CC(=O)N1C(=O)C(C(=O)c2ccc(F)cc2)C(=O)N(c2ccc(S(=O)(=O)Nc3nccs3)cc2)C1=S (stereo not drawn)
- IC50 [19]: 3.2 µM

Structure (SMILES): CCOC(=O)C1=C(CCl)NC(=O)NC1c1ccc(OCc2cn(CC3=C(C(=O)OCC)C(c4ccc([N+](=O)[O-])cc4)NC(=O)N3)nn2)cc1 (stereo not drawn)
- IC50 (HeLa): 18 µM

Structure (SMILES): CN(C)C/C=C/C(=O)Nc1ccc(C(=O)N[C@@]2(C)CCC[C@@H](Nc3ncc(Cl)c(-c4c[nH]c5ccccc45)n3)C2)nc1
- IC50 (CDK7/Cyclin H/MNAT1): 20 nM

Structure (SMILES): O=C1NN=C(Nc2ccccc2)/C1=C/Nc1ccc(O)cc1
- IC50 (MCF7 [2]): 23.3 µM
- inhibition [10]: 60%
